Row | SMILES | melting point
1 | Nc1c(Cl)c(C(=O)O)nc(Cl)c1C(F)(F)F | 173 °C
2 | Cc1c(-c2ccc3sc(=O)n(C)c3c2)nc2ccccn12 | 206 to 208 °C
3 | O=C(O)Cc1ccc(NC(=O)C(COc2ccccc2Cl)NS(=O)(=O)c2ccc(Cl)cc2)cc1 (racemic) | 190 to 191 °C
4 | NC(=O)C1CCN(CC=Cc2ccccc2)CC1 | 190 to 192 °C
5 | CC(=O)Nc1cc(N(CCO)CCO)ccc1N=Nc1snc(C)c1C#N | 188 to 189 °C
6 | COc1ccc2[nH]c(C(=O)c3ccccc3)cc2c1 | 159 to 161 °C
7 | CC(=O)c1ccc2c(c1)OC(C(=O)O)CO2 (stereo not given) | 167 to 168 °C
8 | CC(C)(CCNS(=O)(=O)c1ccc(Cl)cc1)CC(=O)O | 107 to 108 °C
9 | C=CN1Cc2ccccc2-c2ccc(Cl)cc2C1=O | 170 to 172 °C
10 | Nc1nc2c(sc(=O)n2C/C=C\CCl)c(=O)[nH]1 | 200 to 202 °C
11 | COc1ccc(Cc2sc3ccccc3c2-c2ccc(-c3ccc(OC(Cc4ccccc4)C(=O)O)cc3)cc2)c(OC)c1 (stereo not given) | 70 to 72 °C
12 | COC(=O)c1c(O)c(Br)c(Br)n1C | 128 to 130 °C
13 | COC(=O)COc1ccccc1C1C(C(=O)OC)=C(C)NC(C)=C1C(=O)OC | 153 to 155 °C
14 | COc1ccccc1N1CCN(CCCNC(=O)c2cccc3c(=O)c(C)c(C4CCCC4)oc23)CC1 | 135 to 137 °C
15 | CS(=O)(=O)N(Cc1cccnc1)c1ccc(F)cc1F | 132 to 135 °C
16 | CC(=O)Nc1ccc(S(=O)(=O)c2cccc3cnccc23)cc1 | 240 to 244 °C
17 | COc1cc2ncnc(-c3cn(S(C)(=O)=O)c4ccccc34)c2cc1OC | > 220 °C
18 | O=C(N[C@H]1CCCNC1=O)c1ccc(F)cc1F | 140 to 141 °C
19 | CC(Oc1ccc(NC(=O)NC(=O)c2ccccc2Cl)cc1)c1ccccc1 (stereo not given) | 166 to 167 °C
20 | CC1=C(C)C(=O)N(CCN(C)C)C1=O | 9 °C
21 | CCCC1=NN=C2C1=C1C=CC=CN1C(=O)C2C#N (stereo not given) | 298 to 300 °C
22 | COC(=O)c1ccc(Cl)cc1NC(=O)CSc1nc2ccccc2s1 | 117 to 120 °C
23 | Cn1cc(-c2cccc(Br)c2)c(=O)c(-c2cccc(C(F)(F)F)c2)c1 | 151 to 153 °C
24 | O=c1ccn([C@@H]2C[C@H](O)[C@@H](O)[C@H]2O)c(=O)[nH]1 (racemic) | 229 to 230 °C
25 | Cc1nnc(CCl)n1-c1ccc(Cl)cc1C(=O)c1ccccc1Cl | 127 to 130 °C

Row | SMILES | melting point
26 | O=C1C[C@H](NC(=O)[C@H]2CCCN2C(=O)c2nc(CCCc3ccc(O)cc3)c[nH]2)[C@@H](OCc2ccccc2)O1 | 86 to 90 °C
27 | Oc1nc2ccccc2c(O)c1O | > 250 °C
28 | CCON=C(CC)C1=C(O)CC(c2c(C)c(C)c3c(c2Cl)CC(C)(CC)C3)CC1=O (stereo not given) | 93 to 94 °C
29 | O=C(NC(Cc1c[nH]c2ccccc12)C(=O)CCc1cc(C(F)(F)F)cc(C(F)(F)F)c1)OCCc1ccccn1 (stereo not given) | 133 to 135 °C
30 | O=C1C(=O)N(Cc2ccc(O)cc2)c2ccc(S(=O)(=O)N3CCCC3COc3cccnc3)cc21 (stereo not given) | 127 to 129 °C
31 | CCC(O)(CC)c1csc(-c2cccc(OCc3ccc(CO)c(CO)c3)c2)c1 | 47 °C
32 | CSc1sc(C(N)=O)c(C(C)C)c1-c1oncc1C | 105 °C
33 | COc1ccc(/C=C(\C#N)c2ccc(Cl)cc2Cl)cc1OC1CCCC1 | 105 to 107 °C
34 | N#Cc1c(N2CCN(C(=O)c3cccs3)CC2)c2sccc2[nH]c1=O | 293 °C
35 | CCN(C)C(=O)/C=C/CSc1nc(N)cc(Cl)n1 | 170 to 172 °C
36 | CS(=O)(=O)Nc1ccc(SCCCCl)cc1 | 61 to 63 °C
37 | CC(C)(C)c1cc(Cl)c(O)c(C=O)c1 | 75 to 77 °C
38 | O=C1c2cccc(NC(=S)Nc3cnccn3)c2C2CC3(CCN12)SCCS3 (stereo not given) | 128 °C
39 | CCOP(=O)(OCC)C(CCc1cc(C)nc2c(Br)c(-c3ccccc3)nn12)P(=O)(OCC)OCC | 46 to 48 °C
40 | Cc1cc(C)cc(CNC(=O)C(Cc2c[nH]c3ccccc23)NC(=O)c2ccccc2)c1 (stereo not given) | 177 to 178 °C
41 | O=C1c2cccc3cc4ccccc4c(c23)C(=O)N1CCNCCCCCNCCN1C(=O)c2cccc3cc4ccccc4c(c23)C1=O | 122 °C
42 | CCC(=O)NC[C@@H]1C[C@H]1c1c(I)ccc2c1CCO2 (relative stereo) | 148 to 149 °C
43 | CC1C(=O)N(c2cccc(Cl)c2)N=C1N (stereo not given) | 138 °C
44 | Oc1cc(CCl)nc(C(Cl)(Cl)Cl)n1 | 138 to 144 °C
45 | COCC1CN(c2cc3c(cc2F)c(=O)c(C(=O)O)cn3-c2ccc(F)cc2)CCN1 (stereo not given) | 216 to 218 °C
46 | Nc1ccc2[nH]c(=O)ccc2c1 | 116 to 118 °C
47 | CN1CCN(c2ccc(Nc3nc(N)c(C(=O)c4c(F)cccc4F)s3)cc2)CC1 | 168 to 170 °C
48 | COC(=O)Cn1cc2c(c1C)-c1ccc(Cl)cc1C(c1ccccc1Cl)=NC2 | 174 to 176 °C
49 | CC1(C)[C@@H]2[C@H]1[C@@H](O)O[C@H]2C(Cl)(Cl)Cl | 100 to 105 °C
50 | COC(=O)c1cc(N=C2C=CC(=O)C=C2)c(F)c(-c2ccc(Cl)cc2)n1 | 154 to 156 °C

Row | SMILES | melting point
51 | OCCCNc1nnc(NCCCO)c2cc3ccccc3cc12 | 225 to 228 °C
52 | Cc1c(CC(=O)O)c2cc(O)c(F)cc2n1C(=O)c1ccc(Cl)cc1 | 193 to 195 °C
53 | CCn1ncc2c(-c3cncc(C)c3)c(C(=O)NCc3ccc(OC)cc3)c(-c3ccccc3)nc21 | 203 to 204 °C
54 | Cc1nc(-c2ccc(C#N)cc2)sc1C(=O)N1CO[C@@](Cn2cncn2)(c2ccc(F)cc2F)[C@H]1C | 200 to 201 °C
55 | N=C(N)c1ccc(C(=O)N[C@@H](Cc2cc(I)c(O)c(I)c2)C(=O)N2CCC(OCC(=O)O)CC2)cc1 | 220 to 221 °C
56 | O=C1NCCCN1CCCN(Cc1ccccc1)CC1CCc2ccccc2O1 (stereo not given) | 94.7 °C
57 | CCNC(=O)CCCC=CCC1C(O)CC(O)C1C=CC(O)CCc1ccccc1 (stereo not given) | 64 to 66 °C
58 | Cc1nn(-c2ccccn2)c2[nH]c3ccc(N(C)C)cc3c(=O)c12 | 171 to 173 °C
59 | CC(C)n1cc(-c2nc(C(N)=O)c(N)nc2-c2ccc(F)c(F)c2)ccc1=O | 226 °C
60 | CNC(=O)NC1CCC(O)c2ccccc21 (stereo not given) | 172 to 180 °C
61 | CC(=O)OCCC1CC2=C(O1)C(C)=CC(C)(O)C2C (racemic) | 90 to 92 °C
62 | S=c1sc2ccccc2n1CNc1ccccc1 | 102 to 103 °C
63 | COc1cc2c(nc1OC)c(-c1cc3cc(F)cnc3[nH]1)cn2CCN1CCOCC1 | 218 °C
64 | CCN1C(=O)CCCc2c1ccc(Nc1ncc(Cl)c(Nc3ccccc3-n3cccn3)n1)c2OC | 183 to 185 °C
65 | Cc1ccnc(-c2cccc(Br)n2)n1 | 127 °C
66 | CCN1CCCC(N2C(=O)c3ccc([N+](=O)[O-])cc3C2=O)C1 (stereo not given) | > 300 °C
67 | CCC(=O)c1cccc2cccc(O)c12 | 114 to 117 °C
68 | CC(=O)OC1CSC(Oc2cccnc2-c2cccs2)C(OC(C)=O)C1OC(C)=O (stereo not given) | 166 °C
69 | COc1cc(Cl)c(NN)c(Cl)c1 | 124 to 125 °C
70 | CC(=O)c1c(C)[nH]c(-c2ccncc2)c1-c1ccncc1 | 236 to 239 °C
71 | Cc1cccc(C(=O)C(=O)c2ccccc2)c1C | 61.5 to 62.5 °C
72 | COc1cc2c(cc1C(F)(F)F)N(C(=O)Nc1ccc(F)c(-c3cccnc3)c1)CC2 | 210 to 212 °C
73 | COc1cc2c(c(OC)c1OC)C(C)(C)CC(C=O)=C2 | 178 to 180 °C
74 | CCCCNC(=O)Oc1cccc(NC(=O)C=C(C)OCC)c1 | 164 °C
75 | Cc1nn(C)c(C(=O)C(C#N)c2ccc(C(C)(C)C)cc2)c1C (stereo not given) | 178 °C

Row | SMILES | melting point
76 | O=[N+]([O-])c1ccccc1C=[N+]([O-])c1cccc(CO)c1 | 97 to 99 °C
77 | CNC(=O)c1cccc(C2C(C(=O)c3ccc(OC)cc3)=C(O)C(=O)N2c2nnc(C)s2)c1 (stereo not given) | 238 °C
78 | CCc1cnc(C2=NC(C)(C(C)C)C(=O)N2)c(C(=O)NCCCC(=O)OC)c1 (stereo not given) | 132 to 134 °C
79 | CCCCCCSC1c2cccc(O)c2C(=O)c2c(O)cccc21 | 49 to 50 °C
80 | CCOc1nc(-c2ccc(F)cc2C)c2c(n1)N(c1c(F)cccc1F)C(=O)NC2 | 191 to 194 °C
81 | CN1OCC(=O)N(C(c2ccccc2)c2ccccc2)C1=S | 152 to 154 °C
82 | O=C1c2ccc(NC(=O)C3CCCC3)cc2C(=O)c2cc(NC(=O)C3CCCC3)ccc21 | 281 °C
83 | COC(=O)c1ccc2c(c1)-n1cccc1CO2 | 60 to 62 °C
84 | CC(C)(CC(O)(Cn1ccc2c1CCCC2=O)C(F)(F)F)c1cc(S(C)(=O)=O)cc2c1OCC2 (stereo not given) | 207 to 208 °C
85 | COc1ccc(C2=NN(Cc3ccc(C(=O)O)cc3)C(=O)[C@H]3CC=CC[C@@H]23)cc1OC (relative stereo) | 192 to 193 °C
86 | CC(C)(C)C(=O)N[C@H]1CC[C@H](CCN2CCN(c3nccc4c3CCO4)CC2)CC1 | 185 °C
87 | O=C(OCCC1CC1)c1ncn2c1[C@@H]1CCCN1C(=O)c1c(Cl)cccc1-2 | 163 to 164 °C
88 | O=S1CCOCC1c1ccc(Cl)c(Cl)c1 (stereo not given) | 100 to 103 °C
89 | O=c1c2cc(F)c(N3CCCC3)nc2n(Cc2ccccc2)c(=O)n1OCc1ccccc1 | 171 to 172 °C
90 | CCC(=NO)C(C)(C)NCC(Cn1ccnc1[N+](=O)[O-])ONC(C)(C)C(CC)=NO (stereo not given) | 143 to 144 °C
91 | CC(C)(C)OC(=O)N1C(=O)CCC1c1ccc(Br)cc1 (stereo not given) | 122 to 124 °C
92 | CN1CCN(c2ccc(OCc3cc(CCC(=O)O)c4c(c3)CC(NS(=O)(=O)c3ccc(Cl)cc3)CC4)cc2)CC1 (stereo not given) | 148 °C
93 | CSC(=C[N+](=O)[O-])Nc1ccc(Cl)nc1 | 169 to 171 °C
94 | CC(=O)Oc1ccc(CC2CCCN2C)cc1OC(C)=O (stereo not given) | 44 to 45 °C
95 | COc1ccc2sc(C(=O)NCCCCC(=O)O)c(OC(C)C)c2c1 | 135 to 137 °C
96 | CCOc1c2ccccc2c(C=O)c2ccccc12 | 88 to 90 °C
97 | CN1CCC2(CC1)OC(c1ccccc1)c1ccccc12 (stereo not given) | 123 to 124 °C
98 | Cn1nc(C(F)(F)F)c(C=O)c1O | 116 to 118 °C
99 | O=C1CCC2=C1C(c1ccc(F)c(Br)c1)C1=C(CCCCS1)N2 (stereo not given) | 210 °C
100 | CNC(=S)C1(c2cccc(C)n2)CCCCS1=O (stereo not given) | 234 °C

Source: a melting point compilation (Tetko et al.; mined from patent text by program, amines drawn as free bases though some values may be those of a salt)
